Test results reported in patent publication US20220054532A1, “VETERINARY COMPOSITIONS AND METHODS OF USE THEREFOR” (priority 2019, published 2022).

What was measured:
Assay type in all cases: in vivo
[1] = tested on: dogs suffering from cognitive dysfunction syndrome; assay: Example 10: cognitive decline, Cognitive Dysfunction Screening Checklist (CBD Complex); conditions: for Average Initial Score: day 0 (before treatment); for Average Final Score: day 60, BID
Text: This example examines the ability of embodiments of the invention versus Anipryl® to treat cognitive decline.
The patient group is twenty dogs suffering from cognitive dysfunction syndrome, as determined by the Cognitive Dysfunction Screening Checklist. See G. Landsberg et al., 2003 HANDBOOK OF BEHAVIOR PROBLEMS OF THE DOG AND CAT (Elsevier Science Limited) (2003). The twenty dogs are broken into five groups of four dogs. The first group receives Anipryl® as the sole active agent; the second group receives a composition comprising HMW HA as the sole active agent; the third group receives a composition comprising CBD as the sole active agent; the fourth group receives a composition comprising HMW HA and CBD Complex as the active agents; and the fifth group receives a composition comprising HMW HA, CBD Complex, nicotinamide adenine dinucleotide (“NAD”), and phosphatidylserine as the active agents.
Each composition is administered for a period of sixty (60) days, twice per day (“BID”). The owner completes the Checklist on days 0 (“Initial Score”), 15, 30, 45, and 60 (“Final Score”) of treatment.
Each group is evaluated and Checklist scores averaged. The following scores are observed and the results depicted in FIG. 10: […]

[2] = tested on: horses suffering from joint inflammation; assay: Example 12: joint inflammation, thermal imaging (equine, CBD Complex); conditions: over the inflamed joint, 60 days BID
Text: This example examines the ability of embodiments of the invention versus Cosequin® to treat joint inflammation.
The first patient group is twenty dogs suffering from joint inflammation. The second patient group is twenty cats suffering from joint inflammation. The third patient group is twenty horses suffering from joint inflammation. Each patient group is broken into five groups of four animals. The first groups receive Cosequin® as the sole active agent; the second groups receive a composition comprising HMW HA as the sole active agent; the third groups receive a composition comprising CBD as the sole active agent; the fourth groups receive a composition comprising HMW HA and CBD Complex as the active agents; and the fifth groups receive a composition comprising HMW HA, CBD Complex, Boswellia, and superoxide dismutase (“SOD”) as the active agents.
Each composition is administered for a period of sixty (60) days, BID. Efficacy is determined by a decrease in body temperature over the inflamed joint, as measured by thermal imaging (e.g., via Digatherm device). Thermal imaging is performed on days 0 (“Initial Score”), 15, 30, 45, and 60 (“Final Score”) of treatment.
The following equine scores are observed and the results depicted in FIG. 12c: […]

[3] = tested on: dogs suffering from seizures; assay: Example 6: seizures in dogs; conditions: seizure scale 1 (seizure-free) to 10 (daily or multiple seizures); for Initial Score: day 0; for Final Score: day 60, BID
Text: This example examines the ability of embodiments of the invention versus phenobarbital to treat seizures.
The patient group is twenty-four dogs suffering from seizures as diagnosed by their referring veterinarian. The patient group is broken into six groups of four animals. The first group receives phenobarbital as the sole active agent; the second group receives a composition comprising phenobarbital and Keppra®; the third group receives a composition comprising HMW HA as the sole active agent; the fourth group receives a composition comprising CBD as the sole active agent; the fifth group receives a composition comprising HMW HA and CBD as the active agents; and the sixth group receives a composition comprising HMW HA, CBD, valerian root, and scutillaria as the active agents.
Each composition is administered for a period of sixty (60) days, BID. Each dog is evaluated on days 0 (“Initial Score”), 15, 30, 45, and 60 (“Final Score”) of treatment. The results are averaged and characterized on a scale of 1 (seizure-free) to 10 (daily seizures or multiple seizures during the event).
The following canine scores are observed and the results depicted in FIG. 6: […]

[4] = tested on: cats suffering behavior aberrations and/or anxiety; assay: Example 13: behavior aberrations and anxiety, Fe-BARQ (feline, CBD Complex); conditions: Fe-BARQ day 0 vs 60, SID, 0 (no improvement) to 3 (marked improvement)
Text: This example examines the ability of embodiments of the invention versus Clomicalm® to reduce behavior aberrations and anxiety.
The first patient group is twenty dogs suffering behavior aberrations and/or anxiety, as determined by the canine behavioral assessment and research questionnaire (“C-BARQ”). […] The second patient group is twenty cats suffering behavior aberrations and/or anxiety, as determined by the feline behavioral assessment and research questionnaire (“Fe-BARQ”).
Each group is broken into five groups of four animals. The first group receives Clomicalm® as the sole active agent; the second group receives a composition comprising HMW HA as the sole active agent; the third group receives a composition comprising CBD as the sole active agent; the fourth group receives a composition comprising HMW HA and CBD Complex as the active agents; and the fifth group receives a composition comprising HMW HA, CBD Complex, valerian root, and scutillaria as the active agents.
Each composition is administered for a period of sixty (60) days, once a day (“SID”). Owners complete the species-appropriate C-BARQ or Fe-BARQ on days 0 and 60 of treatment. The results from the overall questionnaire are averaged and characterized as no improvement (score of 0), mild improvement (score of 1), moderate improvement (score of 2), or marked improvement (score of 3).

[5] = tested on: dogs suffering from GI-specific inflammation; assay: Example 11: GI-specific inflammation, owner-rated symptom reduction (canine, CBD Complex); conditions: canine (FIG. 11a), symptom reduction score 0 (no reduction) to 4 (resolution of symptoms); for Final Score: after 28 days BID
Text: This example examines the ability of embodiments of the invention versus Pepcid® to treat unwanted GI-specific inflammation characterized by gastritis, reflux, vomiting, diarrhea, and inappetence.
The first patient group is twenty dogs suffering from GI-specific inflammation. The second patient group is twenty cats suffering from GI-specific inflammation. Each patient group is broken into five groups of four animals. The first groups receive Pepcid® as the sole active agent; the second groups receive a composition comprising HMW HA as the sole active agent; the third groups receive a composition comprising CBD as the sole active agent; the fourth groups receive a composition comprising HMW HA and CBD Complex as the active agents; and the fifth groups receive a composition comprising HMW HA, CBD Complex, and glutathione as the active agents.
Each composition is administered for a period of twenty-eight (28) days, BID. The owner observes potential reduction of symptoms at the end of treatment and rates the reduction as no reduction (score of 0), mild reduction (score of 1), moderate reduction (score of 2), significant reduction (score of 3), or resolution of symptoms (score of 4).

Compound | Average Initial Score [1] | Average Final Score [1] | Reduction in Temperature (° F.) [2] [° F.] | Initial Score [3] | Final Score [3] | Improvement Score [4] | Final Score [5] | Initial Score [5]
C=C(C)[C@@H]1CCC(C)=C[C@H]1c1c(O)cc(CCCCC)cc1O [CBD Alone, 2-[(1R,6R)-3-methyl-6-prop-1-en-2-ylcyclohex-2-en-1-yl]-5-pentylbenzene-1,3-diol] | 3 | 1.5 | 1.6 | 9 | 4 | 1.8 | 2 | 0
hyaluronic acid [HMW HA Alone] | 3 | 2 | 2.1 | 9 | 5 | 1 | 3 | 0
